Assay results as given in publication PMC7507959, “A Structure-Based Mechanism for DNA Entry into the Cohesin Ring” (Molecular Cell, 2020).

B1: Psc3 (natural protein, fission yeast (S. pombe), UniProt O13816 1-962, looked up)
chain: MSESVTTGSDDDGGDRESSPVMLSQSFDPMSSSSNSSSEENSDDDYEKTISSKKRHPRPNSKGVNVKRSRRNAIVEEDPQEEIFNNLFAFLLDQKVDTMDIAVSWFADYAKDNQSALANLINFILKCCGCNRAINVFDVQDQDSASATLSQIQLSVERTSTRDYPLNSKNLKFRNFRKRLTGLLSNFVSQLSIRNYLYNSTVFEDIMSWVVAMSSSTMRPIRHTATVFCLNIMTFLCEKSKELLNEHAIATKQLEKEEKRSRVNRNRINELNNSLGEIVKQQDTLTTYLNDYFDSVFVHRYRDVEPKIRVDCLQELGVWINTVPSIFFSGSYLRYLGWMLSDINTTVRLTVVKVLRKFFETDSFIGGLRHFSSRFKERILEMSCVDADIGVRVASIRLCNAMRTCGFLENSEILKVLKLILDINPRVQREAVLFLCKVVDESVNEKIDLWGEEDYILKAFSQTSLTTFSVHWIKFSQMCKLLEEVRLSYQSSFDYDTLLRIFQKNGNFITPITQALLNACEIDSIYQSWEDISNFVLFDNYTSTLKDPIDSILSFCKLNDFQESILLQLLSASIQTVCNNNFITPKTVHNKQAAETTNDQNKDKDLLYLNLLPYINSITERNSASPTLLHDSLRLLFSMDLTEMTDPQLSRHFELLINNLKKFFLTNNDLQIIQGCTILFLRLDSIPALKEDLKLLVTDICDQTVTEFLKNFGSFNIQDAVITKDEFVIFEACLTRIEGCTSLKDFSDYPEFDIIYERLVSLLSRVPNSYEDTLKFSAINTLQSLLFWFFLRKDNPADEEKKKDDETKVFNCLINIMNNDSSKILQLQAARTFLETVIMKEGVKASHYNDDNRVSEEHNFLKPQFLDALLKILEGWLYTYAKVGQFPFKRLTQASSPHTQISLDKNPLNRRLLEHVCCDLTSKLLIVVSLSNTITPEFSQQFCELRGHYGPKLSAIVDEFLN
notes: Psc3 (Scc3/STAG1/2), HEAT repeat subunit of fission yeast cohesin; Subunit of the wild-type tetramer; constructs from Murayama and Uhlmann, 2014; also called Psc3^Scc3/STAG1/2; Scc3; source: budding yeast (W303 background), galactose-induced, purified as part of the cohesin tetramer

Legend:
[1] = molecular target: T1, N17-cohesin with Mis4-Ssl3 loader (Schizosaccharomyces pombe, UniProt O42649+O94383); assay: ATP hydrolysis, [gamma-33P]-ATP thin layer chromatography; assay type: biochemical; conditions: 0.25 mM ATP, Mis4-Ssl3, pBluescript dsDNA, 32 °C
T1 construct: gene psm1; as P1 but Rad21 lacks amino acids 1-17 (residues 18-646); expressed in budding yeast; with Cohesin subunit rad21; Cohesin subunit psc3; Sister chromatid cohesion protein mis4; MAU2 chromatid cohesion factor homolog ssl3

[2] = molecular target: T2, fission yeast cohesin (Psm1-Psm3-Rad21-Psc3) with Mis4-Ssl3 loader (Schizosaccharomyces pombe, UniProt O42649+O94383); assay: as above; assay type: biochemical; conditions: 0.25 mM ATP, Mis4-Ssl3, pBluescript dsDNA, 32 °C
T2 construct: tetramer expressed in budding yeast (W303); Mis4-Ssl3 expressed in fission yeast; FRET rows carry SNAP on Psm1 and CLIP on Psm3 C termini; with Cohesin subunit rad21; Cohesin subunit psc3; Sister chromatid cohesion protein mis4; MAU2 chromatid cohesion factor homolog ssl3

[3] = molecular target: T3, fission yeast cohesin (Psm1-Psm3-Rad21-Psc3) with Mis4-Ssl3 loader (Schizosaccharomyces pombe, UniProt O42649+O94383, O42649:E1126Q/O94383:E1161Q); assay: FRET between SNAP/CLIP-labelled ATPase heads; assay type: binding; conditions: hydrolysis-deficient EQ-cohesin; 0.5 mM ATP, Mis4-Ssl3, DNA, 1 mM MgCl2, pH 7.5, 32 °C
T3 construct: tetramer expressed in budding yeast (W303); Mis4-Ssl3 expressed in fission yeast; FRET rows carry SNAP on Psm1 and CLIP on Psm3 C termini; with Cohesin subunit rad21; Cohesin subunit psc3; Sister chromatid cohesion protein mis4; MAU2 chromatid cohesion factor homolog ssl3

Mis4 = molecular target: T4, Mis4 (fission yeast (S. pombe), UniProt Q09725 1-1587); assay: cross-linking; SDA (NHS-diazirine) UV crosslinking with mass spectrometry (CLMS), gripping state: 200 nM cohesin, 200 nM Mis4-Ssl3, 200 nM 125 bp dsDNA, 0.5 mM ADP and 0.5 mM BeSO4 + 10 mM NaF, 32°C 20 min; conditions: both partners purified
T4 construct: Mis4 (Scc2/NIPBL), fission yeast cohesin loader; Used as the Mis4-Ssl3 complex; construct from Murayama and Uhlmann, 2014; also called Mis4^Scc2/NIPBL; cohesin loader; source: fission yeast, thiamine-repressible expression, purified as Mis4-Ssl3

Psc3 = molecular target: B1; assay: as above; conditions: both partners purified

T4 sequence (Q09725 whole entry): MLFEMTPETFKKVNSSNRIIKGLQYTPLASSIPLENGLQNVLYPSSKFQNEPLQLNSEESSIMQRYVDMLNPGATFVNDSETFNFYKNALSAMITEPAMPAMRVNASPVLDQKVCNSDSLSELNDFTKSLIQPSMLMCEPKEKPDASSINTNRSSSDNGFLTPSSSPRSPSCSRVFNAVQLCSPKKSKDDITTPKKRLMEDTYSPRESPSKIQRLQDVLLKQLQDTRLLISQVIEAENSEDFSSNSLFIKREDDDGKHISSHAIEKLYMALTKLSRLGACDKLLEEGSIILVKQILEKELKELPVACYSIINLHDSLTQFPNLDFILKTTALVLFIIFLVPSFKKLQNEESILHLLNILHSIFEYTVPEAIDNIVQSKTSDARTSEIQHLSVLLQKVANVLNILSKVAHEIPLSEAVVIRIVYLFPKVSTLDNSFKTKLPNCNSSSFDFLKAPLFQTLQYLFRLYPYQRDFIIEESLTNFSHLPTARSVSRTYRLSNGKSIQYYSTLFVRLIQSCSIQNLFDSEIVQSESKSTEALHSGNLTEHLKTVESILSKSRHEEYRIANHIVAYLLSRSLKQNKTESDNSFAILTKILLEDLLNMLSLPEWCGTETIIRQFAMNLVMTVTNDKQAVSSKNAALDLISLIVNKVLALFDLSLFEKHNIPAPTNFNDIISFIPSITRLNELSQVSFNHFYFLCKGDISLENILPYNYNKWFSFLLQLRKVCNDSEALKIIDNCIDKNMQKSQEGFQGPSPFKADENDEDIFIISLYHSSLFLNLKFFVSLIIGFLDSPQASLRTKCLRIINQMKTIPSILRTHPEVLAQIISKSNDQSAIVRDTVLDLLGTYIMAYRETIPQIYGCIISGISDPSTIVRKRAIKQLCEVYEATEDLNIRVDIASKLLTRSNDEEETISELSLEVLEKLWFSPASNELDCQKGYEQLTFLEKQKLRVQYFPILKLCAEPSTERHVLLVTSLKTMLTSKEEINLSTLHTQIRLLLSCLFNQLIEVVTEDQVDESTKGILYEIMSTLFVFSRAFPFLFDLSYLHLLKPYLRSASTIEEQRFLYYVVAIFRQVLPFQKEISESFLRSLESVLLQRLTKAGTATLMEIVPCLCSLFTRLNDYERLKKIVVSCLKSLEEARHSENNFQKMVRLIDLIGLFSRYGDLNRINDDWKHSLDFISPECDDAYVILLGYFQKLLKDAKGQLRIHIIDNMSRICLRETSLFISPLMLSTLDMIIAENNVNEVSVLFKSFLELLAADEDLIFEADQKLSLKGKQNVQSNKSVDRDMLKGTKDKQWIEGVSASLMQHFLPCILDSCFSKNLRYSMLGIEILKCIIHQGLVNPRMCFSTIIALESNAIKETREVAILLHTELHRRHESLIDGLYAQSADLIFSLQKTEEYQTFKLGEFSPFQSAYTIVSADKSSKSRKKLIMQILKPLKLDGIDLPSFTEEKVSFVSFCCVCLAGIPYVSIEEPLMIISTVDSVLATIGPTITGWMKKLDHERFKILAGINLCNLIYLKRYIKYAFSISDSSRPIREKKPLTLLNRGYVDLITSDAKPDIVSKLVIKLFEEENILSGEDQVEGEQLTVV
T3 sequence (O94383 whole entry E1161Q, one chain of several): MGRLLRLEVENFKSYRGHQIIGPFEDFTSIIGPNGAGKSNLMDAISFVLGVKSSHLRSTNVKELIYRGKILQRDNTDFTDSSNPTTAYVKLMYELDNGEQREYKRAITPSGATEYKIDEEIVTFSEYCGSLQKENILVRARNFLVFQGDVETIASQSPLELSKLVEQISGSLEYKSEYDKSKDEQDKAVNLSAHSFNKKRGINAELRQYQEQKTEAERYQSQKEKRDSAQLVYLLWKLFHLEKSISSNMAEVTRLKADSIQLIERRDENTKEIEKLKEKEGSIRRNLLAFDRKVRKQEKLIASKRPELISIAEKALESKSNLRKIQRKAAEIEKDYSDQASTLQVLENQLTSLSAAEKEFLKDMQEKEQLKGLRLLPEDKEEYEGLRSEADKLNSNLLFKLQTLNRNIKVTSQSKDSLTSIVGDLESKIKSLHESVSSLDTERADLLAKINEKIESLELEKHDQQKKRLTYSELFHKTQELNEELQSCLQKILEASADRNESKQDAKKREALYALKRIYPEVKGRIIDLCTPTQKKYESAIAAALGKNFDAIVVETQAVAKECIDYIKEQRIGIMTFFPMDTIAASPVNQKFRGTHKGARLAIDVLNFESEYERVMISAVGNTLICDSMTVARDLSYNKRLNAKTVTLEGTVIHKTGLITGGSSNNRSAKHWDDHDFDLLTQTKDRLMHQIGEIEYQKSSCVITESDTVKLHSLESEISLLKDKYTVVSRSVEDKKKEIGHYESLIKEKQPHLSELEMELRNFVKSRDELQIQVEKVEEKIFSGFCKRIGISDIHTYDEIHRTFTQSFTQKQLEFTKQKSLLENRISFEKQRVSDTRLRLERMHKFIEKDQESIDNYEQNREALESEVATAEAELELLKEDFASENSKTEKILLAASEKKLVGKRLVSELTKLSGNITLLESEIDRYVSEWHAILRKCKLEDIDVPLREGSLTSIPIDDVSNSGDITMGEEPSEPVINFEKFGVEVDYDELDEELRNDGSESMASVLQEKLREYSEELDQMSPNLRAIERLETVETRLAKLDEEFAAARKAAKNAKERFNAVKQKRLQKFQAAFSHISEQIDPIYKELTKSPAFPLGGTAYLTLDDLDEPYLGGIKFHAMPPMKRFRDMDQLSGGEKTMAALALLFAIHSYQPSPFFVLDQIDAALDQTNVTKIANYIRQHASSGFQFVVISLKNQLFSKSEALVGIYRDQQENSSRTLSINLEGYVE
T3 sequence (O42649 whole entry E1126Q, one chain of several): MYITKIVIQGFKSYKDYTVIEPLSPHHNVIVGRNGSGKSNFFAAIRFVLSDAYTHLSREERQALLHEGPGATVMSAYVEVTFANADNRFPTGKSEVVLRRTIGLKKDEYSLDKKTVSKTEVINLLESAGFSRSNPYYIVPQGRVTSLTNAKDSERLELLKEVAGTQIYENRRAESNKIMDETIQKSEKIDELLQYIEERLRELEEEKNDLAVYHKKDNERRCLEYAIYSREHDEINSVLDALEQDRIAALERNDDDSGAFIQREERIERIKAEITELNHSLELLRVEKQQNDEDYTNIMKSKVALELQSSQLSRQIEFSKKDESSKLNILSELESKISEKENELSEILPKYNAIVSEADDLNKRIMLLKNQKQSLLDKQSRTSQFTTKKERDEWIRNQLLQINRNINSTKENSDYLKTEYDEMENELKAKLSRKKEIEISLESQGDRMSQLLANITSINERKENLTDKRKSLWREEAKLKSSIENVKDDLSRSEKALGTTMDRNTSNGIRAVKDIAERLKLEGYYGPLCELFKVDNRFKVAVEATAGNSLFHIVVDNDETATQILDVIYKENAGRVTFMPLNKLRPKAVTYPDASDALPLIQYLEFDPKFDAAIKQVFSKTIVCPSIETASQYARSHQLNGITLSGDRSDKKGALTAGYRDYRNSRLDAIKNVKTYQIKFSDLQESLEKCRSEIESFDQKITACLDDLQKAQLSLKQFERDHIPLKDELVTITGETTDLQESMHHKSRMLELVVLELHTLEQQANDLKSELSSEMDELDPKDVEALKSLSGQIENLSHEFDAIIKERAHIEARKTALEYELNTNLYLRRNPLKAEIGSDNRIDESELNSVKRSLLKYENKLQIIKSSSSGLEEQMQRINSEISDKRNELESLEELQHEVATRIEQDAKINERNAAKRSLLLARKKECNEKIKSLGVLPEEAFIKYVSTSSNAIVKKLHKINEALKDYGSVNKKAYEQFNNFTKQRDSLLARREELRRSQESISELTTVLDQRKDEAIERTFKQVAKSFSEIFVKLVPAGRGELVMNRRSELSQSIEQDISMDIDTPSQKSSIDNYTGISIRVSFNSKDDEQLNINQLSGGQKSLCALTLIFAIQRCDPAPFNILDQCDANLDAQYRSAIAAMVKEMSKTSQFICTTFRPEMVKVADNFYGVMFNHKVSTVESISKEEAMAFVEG
T3 sequence (P30776 whole entry partner, one chain of several): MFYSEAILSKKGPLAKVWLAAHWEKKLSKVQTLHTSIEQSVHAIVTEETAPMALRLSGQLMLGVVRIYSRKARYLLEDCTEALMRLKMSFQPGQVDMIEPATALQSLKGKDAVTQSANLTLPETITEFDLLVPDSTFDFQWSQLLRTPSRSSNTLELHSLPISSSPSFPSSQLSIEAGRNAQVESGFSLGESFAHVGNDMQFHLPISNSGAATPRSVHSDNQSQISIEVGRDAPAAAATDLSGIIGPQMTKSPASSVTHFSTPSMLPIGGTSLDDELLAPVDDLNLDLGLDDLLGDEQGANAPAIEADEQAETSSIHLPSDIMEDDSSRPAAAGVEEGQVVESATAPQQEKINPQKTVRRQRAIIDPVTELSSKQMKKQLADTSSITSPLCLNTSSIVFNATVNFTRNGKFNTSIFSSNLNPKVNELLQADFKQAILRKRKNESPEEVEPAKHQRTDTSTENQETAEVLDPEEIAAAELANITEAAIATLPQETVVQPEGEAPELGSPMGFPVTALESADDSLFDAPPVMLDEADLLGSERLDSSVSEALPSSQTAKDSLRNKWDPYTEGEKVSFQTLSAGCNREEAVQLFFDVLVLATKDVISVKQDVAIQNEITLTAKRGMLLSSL
T3 sequence (Q09725 whole entry partner, one chain of several): as the sequence (Q09725 whole entry) above
T2 sequence (O94383 whole entry, one chain of several): as the sequence (O94383 whole entry E1161Q, one chain of several) above, with Q1161E counted along it
T2 sequence (O42649 whole entry, one chain of several): as the sequence (O42649 whole entry E1126Q, one chain of several) above, with Q1126E counted along it
T2 sequence (P30776 whole entry partner, one chain of several): as the sequence (P30776 whole entry partner, one chain of several) above
T2 sequence (Q09725 whole entry partner, one chain of several): as the sequence (Q09725 whole entry) above

Nc1ncnc2c1ncn2[C@@H]1O[C@H](COP(=O)(O)OP(=O)(O)OP(=O)(O)O)[C@@H](O)[C@H]1O [ATP]
ATP hydrolysis, [gamma-33P]-ATP thin layer chromatography [1]: loader-stimulated ATP hydrolysis were equal when using wild-type or N17-cohesin | ATP hydrolysis, [gamma-33P]-ATP thin layer chromatography [2]: loader-stimulated ATP hydrolysis were equal when using wild-type or N17-cohesin | FRET between SNAP/CLIP-labelled ATPase heads [3]: the presence of all three components—the loader, DNA, and ATP—resulted in a marked FRET increase

B1
binding result (Mis4): binds

B2: Ssl3 (natural protein, fission yeast (S. pombe), UniProt O94459 1-559, looked up)
chain: MTGLNETDARILVTSRHLFLWPLAETYFKNAEKVLQDCGVCDSFGRLLSTGLQCLYSVLMDTKMEPRVELLTRKRICEVLLSHTVEYADVEAILNRALIIAEQHNLTEYKFSLQLLLSRVFCRTSPKAAKVLLTRCVREAEEYAKVAEIYHSNNQSNPHRWVYEFLLATLEFQNVSQVANSIHNYANHHKHQHLQLLAMILNQSLPMDEISTDSDQISILCLVTQIAQCLRKGEILLAREILPKIHSKLESETFVWPSSYIDFFIDDTSKISIKWMSINQLYLLIYLISGFCYISDSTSGRASRFLQEGLRITGDFKHQERCVLEYLESQKWINNITKDMKYYLIATYLSRSRLSKAERILQSTEDDQTGFLGILKGMYLQKRGDLKKAEVHYRETAKNFSFRTDTFIISTLNLINILEDSAAASRCLESIEPLCNKHEKKIFKLWLLVLKVIREGPQVHQSNVLPRVIQQSSEYANTQLQYISLTELSERFGKLEHAEKMAISALELAKKSKDELWCLISGRILEDFYRSVQKYDKMRQQALENSAYSKLIEDIYSFV
notes: Ssl3 (Scc4/MAU2), small subunit of the fission yeast cohesin loader; Used as the Mis4-Ssl3 complex; construct (plasmid pSsl3) from Murayama and Uhlmann, 2014; also called Ssl3^Scc4/MAU2; Scc4; source: fission yeast, thiamine-repressible expression, purified as Mis4-Ssl3
binding result (Psc3): binds
